Where two headings read alike, the source gives them in different places.
Legend:
[1] = tested on: rat liver microsomes (RLMs); experiment: EGFR TKI screening: rivaroxaban metabolite M-2 formation in RLM incubation; format: in vitro ADME
Experimental: The system was preincubated at 37 °C for 5 min, followed by the addition of NADPH (1 mM) to initiate the reaction. After incubating for an additional 30 min, a 200 μL of acetonitrile solution containing 200 ng/mL midazolam was introduced. The mixture was vortexed for 30 s, centrifuged at 13000 rpm for 5 min, and the supernatant was removed. Three samples were collected for each group.

CYP2J2 = settings: cited from earlier work; for inhibition of rivaroxaban hydroxylation by CYP2J2: in vitro ref 24
[2] = molecular target: rat liver microsomes (RLMs); experiment: Inhibitory mechanism (Ki, αKi, Lineweaver-Burk plots) in RLMs; settings: read-out: inhibitory constant (Ki), substrate rivaroxaban
From the text: Ki and αKi values were computed, and the inhibitory mechanism was examined using Lineweaver–Burk plots.

[3] = patients on rivaroxaban, combination with clarithromycin ref 33; cited from earlier work
P-gp = tested on: P-gp; design: method as in PMID 35174529; settings: in vitro, combination with rivaroxaban ref 21; read-out: IC50 (inhibitory properties of TKIs on DOACs, P-gp mediated); cited from earlier work
CYP3A4 = settings: in vitro ref 25; cited from earlier work
[4] = combination with TKI ref 25; cited from earlier work

In the case of `C=CC(=O)Nc1cccc(Oc2nc(Nc3ccc(N4CCN(C)CC4)c(F)c3)nc3[nH]ccc23)c1` [avitinib, Avitinib], the “ratio of the metabolite concentration relative to the control” value ([1]; 100 μM EGFR TKI, 0.5 mg/mL RLMs, rivaroxaban metabolite M-2, average) is listed as 5.6%, the “effect on rivaroxaban metabolism (metabolite generation rate vs control)” value (“effect … (metabolite generation rate vs control)” below) ([1]; 100 μM EGFR TKI, RLMs) is listed as “significantly inhibited” and the “inhibition pattern with rivaroxaban as probe substrate” value (CYP2J2) is listed as “atypical inhibitory kinetics”. For the same compound, the “inhibition of rivaroxaban hydroxylation by CYP2J2” value (CYP2J2) was “concentration-dependent inhibition” and the Ki [2] was 3.24 µM.
For `CC[C@H]1OC(=O)[C@H](C)[C@@H](O[C@H]2C[C@@](C)(OC)[C@@H](O)[C@H](C)O2)[C@H](C)[C@@H](O[C@@H]2O[C@H](C)C[C@H](N(C)C)[C@H]2O)[C@](C)(OC)C[C@@H](C)C(=O)[C@H](C)[C@@H](O)[C@]1(C)O` [clarithromycin], the “increase in the AUC value for rivaroxaban” value [3] is given as “two-fold increase”.
In the case of `COc1cc2ncnc(Nc3ccc(F)c(Cl)c3)c2cc1NC(=O)/C=C/CN1CCCCC1` [dacomitinib], the “effect … (metabolite generation rate vs control)” value ([1]; 100 μM EGFR TKI, RLMs) is reported as “significantly inhibited”.
For `C#Cc1cccc(Nc2ncnc3cc(OCCOC)c(OCCOC)cc23)c1` [erlotinib], the IC50 (P-gp) is given as less than 10 µM.
In the case of `COc1cc2ncnc(Nc3ccc(F)c(Cl)c3)c2cc1OCCCN1CCOCC1` [gefitinib, Gefitinib], the “inhibition of CYP3A4-mediated rivaroxaban metabolism” value (CYP3A4) is listed as “potently inhibited”.
For `Cc1ccc(NC(=O)c2ccc(CN3CCN(C)CC3)cc2)cc1Nc1nccc(-c2cccnc2)n1` [imatinib], the “increase of rivaroxaban AUC” value [4] is given as 119.96% and the “increase of rivaroxaban Cmax” value [4] is given as 90.43%.
With `CS(=O)(=O)CCNCc1ccc(-c2ccc3ncnc(Nc4ccc(OCc5cccc(F)c5)c(Cl)c4)c3c2)o1` [lapatinib] the “effect … (metabolite generation rate vs control)” value [1] was “significantly inhibited”.
For `CCOc1cc2ncc(C#N)c(Nc3ccc(OCc4ccccn4)c(Cl)c3)c2cc1NC(=O)/C=C/CN(C)C` [neratinib], the “effect … (metabolite generation rate vs control)” value [1] was “significantly inhibited”.
For `C=CC(=O)Nc1cc(Nc2nccc(-c3cn(C)c4ccccc34)n2)c(OC)cc1N(C)CCN(C)C` [osimertinib], the “inhibition pattern with rivaroxaban as probe substrate” value (CYP2J2) is given as “competitive inhibition” and the “inhibition of rivaroxaban hydroxylation by CYP2J2” value (CYP2J2) is given as “concentration-dependent inhibition”.
For `CCN(CC)CCNC(=O)c1c(C)[nH]c(/C=C2\C(=O)Nc3ccc(F)cc32)c1C` [sunitinib], the “reduction in exposure to rivaroxaban in vivo” value [4] is given as 62.32%.

Source: publication PMC12133000 (PLOS One, 2025)
